The source of these data is patent US11712439B2, “Methods and materials for identifying and treating bet inhibitor-resistant cancers” (Mayo Foundation for Medical Education and Research, priority 2017, dated 2023).

One experiment has as its system HER3, IGF1R and INSR. Description: Western blot of receptor tyrosine kinases in C4-2 cells. The experiment is classed as cell-based, human. The note with it: control or SPOP-F133V C4-2 cells, JQ1 1 μM 24 hours. Here is the method:
Cell lysates or immunoprecipitates were subjected to SDS-PAGE, and proteins were transferred to nitrocellulose membranes (GE Healthcare Sciences). The membranes were blocked in Tris-buffered saline (TBS, pH 7.4) containing 5% non-fat milk and 0.1% Tween-20, washed twice in TBS containing 0.1% Tween-20, and incubated with primary antibody overnight at 4° C., followed by secondary antibody for 1 hour at room temperature. The proteins of interest were visualized using ECL chemiluminescence system (Santa Cruz Biotechnology). Densitometry analysis of protein bands was analyzed on the Gel-Pro Analyzer software.

The next experiment concerns C4-2 xenograft tumors. Put plainly: Prostate cancer xenografts in mice, tumor volume. The experiment is classed as in vivo. Conditions: SPOP-F133V C4-2 xenografts, JQ1 50 mg/kg i.p. 5 days a week, day 21. Here is the method: 6-week-old NOD-SCID IL-2-receptor gamma null (NSG) mice were generated and randomly divided into different experimental groups as indicated. All mice were housed in standard conditions with a 12-hour light/dark cycle and access to food and water ad libitum. For BRD2/3/4 knockdown studies, C4-2 cells (5×10^6), infected with lentivirus expressing empty vector (EV) or HA-SPOP-F133V mutant in combination with control shRNA or BRD2/3/4-specific shRNA, were mixed with Matrigel (in 100 μL 1×PBS plus 100 μL Matrigel (BD Biosciences)) and injected s.c. into the right flank of mice. […] Growth in tumor volume was measured in a blinded fashion using digital caliper, and tumor volumes were estimated using the formula (L×W2)/2, where L is length of tumor and W is width. The volumes of tumors were compared, and P values were determined by a two-tailed Student's t test. Upon the completion of treatment, tumor grafts were harvested. Tumor tissues were divided, and a portion was subjected to FFPE. the rest was frozen for protein and RNA extraction.

As for `Cc1sc2c(c1C)C(c1ccc(Cl)cc1)=N[C@@H](CC(=O)OC(C)(C)C)c1nnc(C)n1-2` [JQ1], the “Expression of HER3, IGF1R and INSR” value in the experiment with HER3, IGF1R and INSR was “no effect”. Further, in the experiment on C4-2 xenograft tumors, the Xenograft tumor growth entry was “JQ1-resistance”.
